According to patent US20060229255A1, “Identification of n-alkylglycine trimers for induction of apoptosis” (priority 2003, published 2006):

Assays:
T98g glioblastoma cells = test: BrdU incorporation assay (DNA synthesis); format: cell-based, human; details: synchronized T98 g, 17 h + 2 h BrdU; read-out: IC50 BrdU incorporation (DNA synthesis inhibition)
Procedure: To confirm the G1 arrest of the cell cycle, we analyzed the DNA synthesis by an BrdU incorporation assay. Serial dilutions of the compounds N4-13-10C, N5-13-10C, N10-13-10C, N13-13-10C, etoposide or olomucine were assayed on synchronized T98 g cells as described in FIG. 7. A. Arrested cells were induced to cell cycle re-entry by re-addition of serum alone or with test compounds for 17 h, followed by 2 h in combination with 10 μM BrdU.
BrdU assay. T98g glioblastoma cells at 5000 cells/well in microtiter plates were arrested in G1-phase for 72 h by serum deprivation in MCDB 105 medium. By serum (10%) readdition, cells were treated with serial dilutions of the compounds for 17 h, and followed in combination 10 μM BrdU for […]. BrdU incorporation, i.e. DNA synthesis, was quantified with Cell Proliferation ELISA system, vs. 2 (AmershamPharmacia biotech) as described by the manufacturer.
FIG. 7. […] (A) T98 g cells were synchronized and reinitiated for 19 h with FCS alone or in combination with N10-13-10C (100 μM), N13-13-10C (100 μM), Olomucine (100 μM), etoposide (5 μM) or Taxol (30 nM). Cell cycle profile was assessed by propidium iodide DNA staining and analyzed by flow cytometry. The fraction of cells with G1, S, G2/M DNA content are shown as % of total cell population. (B. and C.) Synchronized T98 g cells were reinitiated with FCS alone or in combination with serial dilutions of N4-13-10C, N5-13-10C, N10-13-10C, N13-13-10C, Olomucine or etoposide for 19 h and labeled with BrdU during the last 2 h. BrdU incorporation was assessed by ELISA using anti-BrdU antibodies. An arbitrary value of 100% was assigned to the densiometric rate of DNA synthesis by untreated cultures and all other values are depicted relative to that reference. The values are means of three (n=3) replicates.

HT29 cells = test: DNA analysis by flow cytometry (cell cycle profile, sub-G1 peak); format: cell-based, human; details: for Dose dependence of subG1 peak: HT29, 72 h, increasing dose 1-35 or 40 μM; for Apoptosis induction (sub-G1 peak detection): HT29, 72 h treatment; for Cells in G1-phase: HT29, compound alone, 24 h in culture; for Maximum apoptosis in time-course: HT29, highest dose assayed, 72 h; for Cell population retained in G2/M phase: HT29, in combination with low doses of Taxol
Procedure: DNA analysis. Floating and adherent cells treated with the compounds were collected by trypsinization and washed twice with PBS. The cells were permeabilized overnight at −20° C. with ice-cold ethanol 70%. The cells were washed in PBS, adjusted at 0.5×10^6 cells/ml and incubated with 20 μg/ml Propidium Iodide and 2 μl/ml RNase DNase-free for 30 min at 30° C. Cells were maintained overnight at 4° C. and then analysed by flow cytometry. Flow cytometric experiments were carried out using an Epics XL flow cytometer (Coulter Corporation, Hialeah, Fla.). The instrumet was set up with the standard configuration: excitation of the sample was done using an standard 488 nm air-cooled argon-ion laser at 15 mW power. Forward scatter (FSC), side scatter (SSC) and red (620 nm) fluorescence for PI were adquired. Optical alignement was based on optimized signal from […] fluorescent beads (Immunocheck, Epics Division). Time was used as a control of the stability of the instrument. Red fluorescence was projected on a 1024 monoparametrical histogram. Aggregates were excluded gating single cells by their area vs. peak fluorescence signal. DNA analysis (Ploidy analysis) on single fluorescence histograms was done using Multicycle software (Phoenix Flow Systems, San Diego, Calif.).
FIG. 2. N10-13-10C and N13-13-10C are pro-apoptotic peptoids while N4-13-10C and N5-13-10C are not. Cell cycle profile was analysed by DNA staining. HT29 cells were grown for 72 h in presence of N4-13-10C (100 μM), N5-13-10C (100 μM), N10-13-10C (40 μM), N13-13-10C (35 μM), Taxol (11 nM) or DMSO as negative control. Fraction of cells at G0/G1, S, G2/M or subG1 peak are specified.
FIG. 3. Specific pro apoptotic effect of N10-13-10C and N13-13-10C. (A) SubG1 peak analysis on several cell lines including HT29, LoVo, MDA.MB.435 and its lung metastatic derivatives lung 2 and lung 6 after 72 h treatment with N10-13-10C or N13-13-10C at IC50 values specified on Table 1. (B) Dose-response analysis of subG1 peak after 72 h treatment of HT29 cells with N 10-13-10C or N13-13-10C at 1, 5, 10, 20, 30 and 35 or 40 μM, respectively. Both, floating and adherent cells were collected, fixed, stained with propidium iodide and DNA content was evaluated by flow cytometry. The fraction of cells with hypodiplod DNA content, i.e. subG1 peak are shown.
FIG. 4. (A) Time course analysis of cell cycle profile after treatment of HT29 cells with N10-13-10C (40 μM), N13-13-10C (35 μM) and/or Taxol (11 nM) for 24 h, 48 h and 72 h. The fraction of cells with subG1 (dark blue), G0/G1 (red), S (yellow), G2/M (blue) DNA content are shown as % of total cell population. (B.) N13-13-10C pulse experiments. HT29 cells were treated transiently with 35 μM N13-13-10C for 1, 3, 6, 24, 48 or 72 h and returned to medium without product for up to 72 h. DNA staining was analyzed by flow cytometry.

| Compound | IC50 (T98g glioblastoma cells) [µM] | Dose dependence of subG1 peak (HT29 cells) | Apoptosis induction (sub-G1 peak detection) (HT29 cells) | Cells in G1-phase (HT29 cells) | Maximum apoptosis in time-course (HT29 cells) | Cell population retained in G2/M phase (HT29 cells) | Pulse necessary for irreversible induction of apoptosis (HT29 cells; HT29, 35 μM, returned to drug-free medium up to 72 h) [h] | Cell cycle profile after short time pulses (HT29 cells; HT29, pulses of 1, 3 and 6 h) |
| --- | --- | --- | --- | --- | --- | --- | --- | --- |
| COc1ccc(CCN(CC(=O)N(CCc2ccccc2)CC(N)=O)C(=O)CNCCc2ccccc2)cc1 [N10-13-10C] | 100 | dose-dependent apoptosis | able to induce apoptosis | increase the percentage of cells in G1-phase | 20% | about 60% | – | – |
| COc1ccc(CCNCC(=O)N(CCc2ccc(OC)cc2)CC(=O)N(CCc2ccccc2)CC(N)=O)cc1 [N13-13-10C] | 150 | dose-dependent apoptosis | able to induce apoptosis | increase the percentage of cells in G1-phase | around 40% | about 60% | ≥ 24 | do not differ from control cells |
